Assay results as given in patent US20180252704A1, “SCREENING ASSAY TO IDENTIFY IDO1 AND/OR TDO MODULATORS” (Hoffmann-La Roche Inc., priority 2015, published 2018).

Molecular target: T1, human TDO (Homo sapiens, UniProt P48775)
T1 construct: expressed in transfected cells; pTet-On plus pTRE2hyg-TDO2
Test: cell based fluorescence assay of TDO activity in HepG2-Tet-on-TDO *25 cells (kynurenine detected with Sensor 1), compared with the prior art biochemical TDO assay
Conditions: IC50 cell-based assay versus biochemical assay
Procedure: Assay Methods: Cells were seeded 10,000 cells/well in the Cell Plate and incubated at 37° C. and 5% CO2 in the 95% humidified cell culture incubator. Cells were then induced with 1 μg/ml of doxycyline for 24 h to achieve full expression of IDO or TDO. Non-induced cells were used as 100% inhibition control. After washing 3 times with 60 μl of 1× HBSS (37° C.), cells were equilibrated with 60 μl of 1× HBSS in the cell culture incubator for 30 min. After an-other 3 times washing with 60 μl of 1× HBSS (37° C.), cells were treated with compounds for 10 min before adding the substrate, L-tryptophan, to a final concentration of 80 μM. The assay was carried out for 4 h at 37° C. and 5% CO2 in the cell culture incubator. The reaction was then stopped by transfer of 30 μl/well of supernatant into the Assay Plate. 10 μl/well of 30% (w/v) TCA were added and followed by application of Sensor 1 to a final concentration of 10 μM. After brief centrifugation, the fluorescence was measured at Ex: 546, Em: 586nm with a Paradigm (Molecular devices) plate reader. [table]

T1 sequence (P48775 whole entry): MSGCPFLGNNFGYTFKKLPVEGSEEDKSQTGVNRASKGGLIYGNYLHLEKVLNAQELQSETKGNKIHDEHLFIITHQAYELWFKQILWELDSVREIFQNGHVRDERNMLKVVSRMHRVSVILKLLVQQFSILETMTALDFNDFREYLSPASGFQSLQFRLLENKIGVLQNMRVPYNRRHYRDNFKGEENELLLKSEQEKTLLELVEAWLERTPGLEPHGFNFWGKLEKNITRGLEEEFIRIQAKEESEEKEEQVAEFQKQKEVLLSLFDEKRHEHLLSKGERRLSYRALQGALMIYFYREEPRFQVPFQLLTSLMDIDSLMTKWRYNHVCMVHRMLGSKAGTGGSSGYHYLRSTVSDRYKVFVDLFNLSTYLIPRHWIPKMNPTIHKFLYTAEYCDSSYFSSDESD

## NS(=O)(=O)NCCNc1nonc1/C(=N/O)Nc1ccc(F)c(Br)c1 [INCB024360, (Z)-N-(3-bromo-4-fluorophenyl)-N′-hydroxy-4-(2-(sulfamoylamino)ethylamino)-1,2,5-oxadiazole-3-carboximidamide]
  right-shift of IC50 from biochemical assay to cell-based assay in TDO enzyme activity: Over 100 fold
